The values below come from PubChem BioAssay (NCI).

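Cultured in 96-well plates, cells were exposed to test compound for 48 hours across five concentrations. Definition used: TGI = concentration required for complete inhibition of growth.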

Test systems include CAKI-1 renal; EKVX NSCLC; HOP-62 NSCLC; NCI-H23 lung; NCI-H460 lung; OVCAR-3 ovarian; SF-539 CNS; SK-MEL-2 melanoma; SNB-19 CNS.
Common to all, as to assay: DTP human tumour cell line panel, 48 h

What is called TGI is the concentration at which net growth stops. A high value points to less potent growth arrest. For the compound `S=c1[nH]c(=S)c2nnn(-c3ccccc3)c2[nH]1`, the TGI with CAKI-1 renal, with EKVX NSCLC, in the assay with HOP-62 NSCLC, in the assay with NCI-H23 lung, in the assay on NCI-H460 lung and in the assay with OVCAR-3 ovarian was more than 100 µM in each case. The TGI with SF-539 CNS, in the assay on SK-MEL-2 melanoma and in the assay with SNB-19 CNS was more than 100 µM in each case.

In the case of `Cc1nc([N+](=O)[O-])cn1CC(=N)N`, the total growth inhibition concentration (TGI) in the assay on EKVX NSCLC, in the assay with HOP-62 NSCLC, in the assay on NCI-H23 lung, in the assay with NCI-H460 lung, with OVCAR-3 ovarian and in the assay on SF-539 CNS was more than 100 µM throughout. In addition, the TGI with SK-MEL-2 melanoma and in the assay on SNB-19 CNS was more than 100 µM in each case.

Consider `CC(C)N(C(=O)C12C3C4C1(I)C1C2C3(I)C41C(=O)N(C(C)C)C(C)C)C(C)C` (stereo not drawn), for which the TGI in the assay on CAKI-1 renal, in the assay with EKVX NSCLC, in the assay with HOP-62 NSCLC, with NCI-H23 lung, in the assay on NCI-H460 lung and with OVCAR-3 ovarian was more than 100 µM in each case. For the same compound, the TGI with SF-539 CNS was more than 59.6 µM; with SK-MEL-2 melanoma, more than 100 µM; with SNB-19 CNS, more than 100 µM.

As for `COC(=O)/C=C/c1c(CC=C(C)C)ncn1C`, the total growth inhibition concentration (TGI) is more than 100 µM in the assay on CAKI-1 renal; more than 100 µM in the assay with EKVX NSCLC; more than 100 µM in the assay on HOP-62 NSCLC; more than 100 µM in the assay on NCI-H23 lung; more than 100 µM in the assay on NCI-H460 lung; 59 µM with OVCAR-3 ovarian. Also, the TGI in the assay with SF-539 CNS was 62.2 µM; with SK-MEL-2 melanoma it was more than 100 µM; in the assay on SNB-19 CNS, more than 100 µM.

For the compound `CCCN1CN(C(C(=O)N[C@@H]2C(=O)N3C2SC(C)(C)C3C(=O)O)c2ccc(O)cc2)CSC1=S` (stereo partly drawn), the TGI in the assay on CAKI-1 renal was more than 100 µM; in the assay with EKVX NSCLC, more than 100 µM; in the assay with HOP-62 NSCLC, more than 100 µM; in the assay with NCI-H23 lung, more than 100 µM; with NCI-H460 lung, more than 100 µM; in the assay on OVCAR-3 ovarian, 72.6 µM. Further, the TGI in the assay on SF-539 CNS, in the assay with SK-MEL-2 melanoma and with SNB-19 CNS was more than 100 µM in each case.

As to `COC(=O)[C@H]1C=C[C@@H](C)n2c(=O)c3cc4ccccc4cc3c(=O)n21`, the TGI in the assay on CAKI-1 renal, in the assay with EKVX NSCLC, with HOP-62 NSCLC, in the assay on NCI-H23 lung, in the assay on NCI-H460 lung and in the assay with OVCAR-3 ovarian was more than 100 µM throughout. For the same compound, the TGI in the assay on SF-539 CNS, in the assay on SK-MEL-2 melanoma and in the assay with SNB-19 CNS was more than 100 µM in each case.

Take `Cc1ccc(NC(=O)CSc2nnc(-c3ccc(N=Cc4ccc(Cl)cc4)cc3)o2)cc1`: the total growth inhibition concentration (TGI) in the assay with EKVX NSCLC, with HOP-62 NSCLC, in the assay on NCI-H23 lung, in the assay on NCI-H460 lung, in the assay on SK-MEL-2 melanoma and with SNB-19 CNS was more than 100 µM throughout.

Regarding `N#CC(C(=O)C(=O)Nc1ccc(Cl)cc1)c1ccccc1` (stereo not drawn), the TGI with CAKI-1 renal, with EKVX NSCLC, with HOP-62 NSCLC, in the assay with NCI-H23 lung, in the assay with NCI-H460 lung and with OVCAR-3 ovarian was more than 100 µM throughout. The TGI in the assay on SF-539 CNS, in the assay with SK-MEL-2 melanoma and in the assay with SNB-19 CNS was more than 100 µM each time.

Take `COc1cc(C=O)c(-c2cc(OC)c(OC)cc2C=O)cc1OC`: the TGI with CAKI-1 renal, with EKVX NSCLC, in the assay with HOP-62 NSCLC, in the assay with NCI-H23 lung, with NCI-H460 lung and in the assay on OVCAR-3 ovarian was more than 100 µM each time. Further, the total growth inhibition concentration (TGI) in the assay with SF-539 CNS, in the assay on SK-MEL-2 melanoma and in the assay on SNB-19 CNS was more than 100 µM each time.

Regarding `CCCO/S(=N\S(=O)(=O)c1ccccc1)c1ccccc1[N+](=O)[O-]` (stereo not drawn), the TGI with CAKI-1 renal, with EKVX NSCLC, with HOP-62 NSCLC, with NCI-H23 lung, with NCI-H460 lung and in the assay with OVCAR-3 ovarian was more than 100 µM in each case. For the same compound, the TGI in the assay on SF-539 CNS, in the assay with SK-MEL-2 melanoma and with SNB-19 CNS was more than 100 µM each time.

`CC(C)N(CCn1c2c3ccccc3ccc2c2oc(=O)c3ccccc3c21)C(C)C`: the concentration for total growth inhibition (TGI) in the assay on CAKI-1 renal is more than 100 µM; with EKVX NSCLC it was more than 100 µM; in the assay on HOP-62 NSCLC it was 98.7 µM; with NCI-H23 lung, more than 100 µM; in the assay with NCI-H460 lung it was more than 100 µM; in the assay on OVCAR-3 ovarian, more than 100 µM. Moreover, the figures for the TGI in the assay on SF-539 CNS, in the assay on SK-MEL-2 melanoma and in the assay with SNB-19 CNS were more than 74.1 µM, more than 100 µM and more than 100 µM, respectively.

Regarding `C/C(CC(=O)Nc1cccc(Cl)c1C)=N\NC(=O)c1ccncc1`, the TGI in the assay with EKVX NSCLC, in the assay on HOP-62 NSCLC, with NCI-H23 lung, in the assay on NCI-H460 lung, in the assay on OVCAR-3 ovarian and in the assay on SF-539 CNS was more than 100 µM in each case. In addition, in the assay with SK-MEL-2 melanoma, the total growth inhibition concentration (TGI) was more than 100 µM.

Regarding `Cc1cc(C)nc(NS(=O)(=O)c2ccc(NC(=O)c3cccc4c(Nc5ccc(S(N)(=O)=O)cc5)c5ccccc5nc34)cc2)n1`, the TGI in the assay on CAKI-1 renal is more than 100 µM; in the assay on EKVX NSCLC, more than 100 µM; with HOP-62 NSCLC it was 98.8 µM; with NCI-H23 lung, more than 100 µM; in the assay with NCI-H460 lung it was more than 100 µM; in the assay on OVCAR-3 ovarian, 27.6 µM. Moreover, the TGI is 20.5 µM in the assay on SF-539 CNS, more than 31.1 µM in the assay on SK-MEL-2 melanoma and more than 100 µM in the assay with SNB-19 CNS.

For `CC(=O)O[C@H]1CCC2[C@@H]3CCC4Nc5[nH]ncc5C[C@]4(C)C3CC[C@@]21C` (stereo partly drawn), the total growth inhibition concentration (TGI) with CAKI-1 renal, in the assay with EKVX NSCLC, with HOP-62 NSCLC, in the assay with NCI-H23 lung, in the assay on NCI-H460 lung and in the assay on OVCAR-3 ovarian was more than 100 µM each time. Besides, the TGI with SF-539 CNS, with SK-MEL-2 melanoma and in the assay on SNB-19 CNS was more than 100 µM each time.

For the compound `O=C(/C=C/c1ccccc1Cl)NC1C=Nc2ccc([N+](=O)[O-])cc2NC1` (stereo not drawn), the total growth inhibition concentration (TGI) with CAKI-1 renal, with EKVX NSCLC, in the assay on HOP-62 NSCLC, in the assay on NCI-H460 lung, with OVCAR-3 ovarian and in the assay on SF-539 CNS was more than 100 µM each time. Besides, the TGI with SK-MEL-2 melanoma and in the assay on SNB-19 CNS was more than 100 µM in each case.
